The values that follow come from US5658938A, “Substituted 1H-imidazoles” (U C B S.A., priority 1994, dated 1997).

Counter-ions that a name gives are not always drawn. Like-named read-outs stand apart in the source and are kept apart here.

For data set [1], the system named is male NMRI mice. Nature of the data set: Toxicity, Irwin's test. The class given is in vivo. Conditions: intraperitoneal. The method, then:
The toxicity of the compounds of the invention has been determined in male NMRI mice by means of Irwin's test (S. Irwin, Psychopharmacologia (Berl.), 13, (1968), 222-257).
Progressive doses of the product studied are administered intraperitoneally to groups of three mice until a lethal dose is reached (dose causing the death of two out of three animals in 48 hours). It follows from this Table that the compounds of the invention are not very toxic.

Data set [2] concerns the target T1, postsynaptic α1 -adrenergic receptor (Rattus norvegicus, UniProt P23944).
T1 construct: isolated aorta of the rat; from tissue; host or cells: rat isolated aorta
T1 sequence (P23944 1-561): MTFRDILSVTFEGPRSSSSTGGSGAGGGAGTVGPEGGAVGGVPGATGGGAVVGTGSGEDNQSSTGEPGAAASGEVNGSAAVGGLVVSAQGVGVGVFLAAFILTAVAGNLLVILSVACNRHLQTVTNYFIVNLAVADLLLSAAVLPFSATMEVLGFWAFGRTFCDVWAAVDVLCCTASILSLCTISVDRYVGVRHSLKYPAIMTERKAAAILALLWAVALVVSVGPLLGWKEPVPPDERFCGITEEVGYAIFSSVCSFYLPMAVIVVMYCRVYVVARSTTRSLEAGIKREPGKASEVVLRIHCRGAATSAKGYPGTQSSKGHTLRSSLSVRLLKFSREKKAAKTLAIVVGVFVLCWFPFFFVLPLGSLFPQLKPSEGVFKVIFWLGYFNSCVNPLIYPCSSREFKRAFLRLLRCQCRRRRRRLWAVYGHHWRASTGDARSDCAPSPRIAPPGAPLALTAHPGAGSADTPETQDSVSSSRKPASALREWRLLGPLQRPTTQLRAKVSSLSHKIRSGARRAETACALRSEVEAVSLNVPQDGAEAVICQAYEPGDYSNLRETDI
As to the kind of experiment: Postsynaptic α1-antagonist activity: inhibition of norepinephrine-induced contraction of the isolated aorta of the rat. Conditions: read-out: ED30 (concentration which causes 30% inhibition of the contraction induced by norepinephrine). The protocol: A non selective α-agonist substance such as norepinephrine induces a sustained contraction of the isolated aorta of the rat (J. M. Van Rossum Arch. Int. Pharmacodyn. 143, (1963), 299-330). This contraction can be inhibited by α1 -adrenergic blocking substances such as prazosin. In this test, a control contraction is carried out with norepinephrine at 3.2×10^-8 mole/l. After washing and stabilizing the preparation, the compound to be tested is added to the bath. Norepinephrine is added 5 minutes after the compound tested, and inhibition of the contraction induced by norepinephrine is measured. Next, inhibition of the contraction induced by norepinephrine is evaluated a second and third time in the presence of increasing concentrations of the compound tested.

The test system of data set [3] is presynaptic α2 -adrenergic receptors. Nature of the data set: Inhibition of the contraction of the electrically stimulated guinea pig ileum (presynaptic α2-agonist activity). Conditions: guinea pig ileum longitudinal muscle strips, electrical stimulation. From the text:
Longitudinal muscle strips attached to an isometric strain gauge are suspended in Tyrode's solution and are stretched under a tension of 1 g (G. M. Drew, Brit. J. Pharmacol. 64, (1978), 293-300; M. Andrejak et al., Naunyn-Schmiedeberg's Arch. Pharmacol. 314, (1980), 83-87).
Electrical stimulation of the parasympathetic nerves associated with the ileum fragments causes a contraction of the muscle. This contraction is reduced in the presence of a presynaptic α2 -agonist and the magnitude by which the contraction is reduced depends on the concentration of the agonist used. This effect is antagonised by the simultaneous presence of an α2 -antagonist such as alpha-yohimbine.
The IC30 concentration (in mole/l) that reduces by 30% the intensity of the contraction of the muscle is determined.

In data set [4] the test system is coronary occlusion in the rat. Nature of the data set: Anti-ischemic and anti-hypertensive activity: coronary occlusion in the anesthetized rat (elevation of the T wave of the electrocardiogram, arterial pressure). As to conditions: for change in vivo at 3 µmol/kg / change in vivo at 1 µmol/kg: Rattus norvegicus, iv. The class given is in vivo, male albino rat of the Sprague-Dawley strain. From the text:
The cardiac anti-ischemic activity of compounds manifests itself by their capacity to oppose the elevation of the T wave of the electrocardiogram, induced by a coronary occlusion in the rat. Continuous monitoring of the arterial pressure also enables to reveal the anti-hypertensive effects. The animal used for the test is a male albino rat of the Sprague-Dawley strain, weighing 220 to 280 g. On the day of the experiment, the animal is anesthetized by intraperitoneal administration of pentobarbital (60 mg/kg), then placed under endotracheal intubation. A ligature system is fitted around the descending left anterior coronary artery according to the procedure of Johnston et el. (Can. J. Physiol. Pharmacol., 61 (1983), 1340-1353). After closing the thorax, three electrodes are arranged on the body of the animal ("V4" thoracic derivation), in order to continuously record the shape of the electrocardiogram signal (in particular the T wave). Catheters are introduced into the right carotid artery and the right jugular vein to measure the arterial pressure and to administer intravenously the compound tested or the vehicle solution. Four 45 second coronary occlusions are performed, separated by episodes of reperfusion of 30, 35 and 30 minutes respectively. The compound to be studied or the vehicle are administered intravenously in bolus, 30 minutes before occlusion 3. The T electrocardiographic signal and the arterial pressure are continuously measured during the entire experiment.
The effects of the compounds according to the invention are quantified by comparing the amplitude of the elevation of the T wave at occlusions 3 and 4 (that is 30 minutes and 60 minutes after administration) with its value at occlusion 2 (that is before administration).
the second column indicates the dose of compound administered, expressed in mole/kg;
the third and the fourth columns indicate the anti-ischemic effect caused by administering the compound tested. The anti-ischemic effect represents the reduction in the elevation of the T wave caused by coronary occlusions 3 and 4, expressed in % with respect to occlusion 2, before administration of the compound (ΔT3 and ΔT4 respectively);
the fifth and sixth columns indicate the anti-hypertensive effect caused by administration of the compound tested. The anti-hypertensive effect is expressed as the maximum lowering of arterial pressure, measured a) between 5 and 30 minutes, and b) between 30 and 60 minutes after intravenous injection of the compound tested (ΔPa and ΔPb respectively). This lowering is expressed in % with respect to the value measured before injection.

Setting [5] is: 0.5 h, read-out: ΔPa (maximum lowering of arterial pressure).
[6] abbreviates: 0.5 h, read-out: ΔT3 (anti-ischemic effect: change in elevation of the T wave, occlusion 3 vs occlusion 2).
Where [7] appears, read: 1 h, read-out: ΔPb (maximum lowering of arterial pressure).
Where [8] appears, read: 1 h, read-out: ΔT4 (anti-ischemic effect: change in elevation of the T wave, occlusion 4 vs occlusion 2).

Consider `COc1ccc2c(c1)CCCC2c1c[nH]cn1` (single isomer, unassigned; (+)) [Compound A, (+)-4-(1,2,3,4-tetrahydro-6-methoxy-1-naphthalenyl)-1H-imidazole], for which the “Lethal dose (dose causing the death of two out of three animals in 48 hours)” value (“Lethal dose” below) in data set [1] is reported as 228.3 mg/kg. In addition, in data set [2], the IC30 amounted to 21 nM. Besides, the “IC30 (concentration that reduces by 30% the intensity of the contraction of the muscle)” value in data set [3] is 30 nM. The change in vivo at 3 µmol/kg in data set [4] (setting [5]) is -32%; in data set [4] (setting [6]), -80%; in data set [4] (setting [7]) it was -28%; in data set [4] (setting [8]) it was -33%.

On to `Oc1ccc2c(c1)CCCC2c1c[nH]cn1` (single isomer, unassigned; (+)) [Compound D, (+)-5,6,7,8-tetrahydro-5-(1H-imidazol-4-yl)-2-naphthalenol], for which, in data set [1], the “Lethal dose” value is more than 68.6 mg/kg. The IC30 in data set [2] stood at 420 nM. Moreover, in data set [3], the “IC30 (concentration that reduces by 30% the intensity of the contraction of the muscle)” value came out at 1.8 nM. Moreover, the change in vivo at 1 µmol/kg is -30% in data set [4] (setting [5]), -50% in data set [4] (setting [6]), -17% in data set [4] (setting [7]) and -31% in data set [4] (setting [8]).

As for `Cc1cccc2c1CCCC2c1c[nH]cn1` (stereo not shown) [Compound B, 4-(1,2,3,4-tetrahydro-5-methyl-1-naphthalenyl)-1H-imidazole], in data set [1], the “Lethal dose” value was more than 67.9 mg/kg. Further, the IC30 in data set [2] worked out at 33 nM. In addition, in data set [3], the “IC30 (concentration that reduces by 30% the intensity of the contraction of the muscle)” value came to 0.88 nM. For the same compound, the change in vivo at 3 µmol/kg is -33% in data set [4] (setting [5]), -48% in data set [4] (setting [6]), -16% in data set [4] (setting [7]) and -29% in data set [4] (setting [8]).

Consider `COc1ccc2c(c1)CCC2c1c[nH]cn1` (stereo not shown) [Compound C, 4-(2,3-dihydro-5-methoxy-1H-inden-1-yl)-1H-imidazole], for which the “Lethal dose” value in data set [1] amounted to 214.3 mg/kg. Moreover, the IC30 in data set [2] was determined as 100 nM. Besides, the “IC30 (concentration that reduces by 30% the intensity of the contraction of the muscle)” value in data set [3] stood at 32 nM. For the same compound, the change in vivo at 3 µmol/kg in data set [4] (setting [5]) is -44%; in data set [4] (setting [6]) it was -52%; in data set [4] (setting [7]), -43%; in data set [4] (setting [8]), -66%.

For the compound `COc1cccc2c1CCCC2c1c[nH]cn1` (stereo not shown) [Compound E, 4-(1,2,3,4-tetrahydro-5-methoxy-1-naphthalenyl)-1H-imidazole], the “Lethal dose” value in data set [1] stood at 127.8 mg/kg. Moreover, the IC30 in data set [2] was 460 nM. Besides, in data set [3], the “IC30 (concentration that reduces by 30% the intensity of the contraction of the muscle)” value was found to be 1.7 nM. The change in vivo at 1 µmol/kg was -45% in data set [4] (setting [5]), -31% in data set [4] (setting [6]), -20% in data set [4] (setting [7]) and -13% in data set [4] (setting [8]).

With `Cl.Oc1cc2c(cc1O)C(c1c[nH]cn1)CCC2` (stereo not shown) [Compound K, 5,6,7,8-tetrahydro-5-(1H-imidazol-4-yl)-2,3-naphthalenediol hydrochloride], the “Lethal dose” value in data set [1] is more than 85.4 mg/kg. Besides, the “IC30 (concentration that reduces by 30% the intensity of the contraction of the muscle)” value in data set [3] came to 16 nM. For the same compound, the change in vivo at 3 µmol/kg in data set [4] (setting [5]) was -29%; in data set [4] (setting [6]), -49%; in data set [4] (setting [7]) it was -41%; in data set [4] (setting [8]), -47%.

With `NC(=O)c1cccc(Cc2c[nH]cn2)c1O` [Mivazerol, 2-hydroxy-3-[(1H-imidazol-4-yl)methyl]benzamide hydrochloride, reference compound], the change in vivo at 3 µmol/kg in data set [4] (setting [5]) is -1%; in data set [4] (setting [6]), -34%; in data set [4] (setting [7]) it was -6%; in data set [4] (setting [8]), -22%.

Turning to `Cc1cc(C(C)(C)C)c(O)c(C)c1CC1=NCCN1` [Oxymetazoline, 3-[(4,5-dihydro-1H-imidazol-2-yl)methyl]-6-(1,1-dimethylethyl)-2,4-dimethylphenol, reference compound], the “IC30 (concentration that reduces by 30% the intensity of the contraction of the muscle)” value in data set [3] amounted to 12 nM. Also, the change in vivo at 3 µmol/kg in data set [4] (0.5 h, i.v. bolus, 3.2 × 10^-8 mole/kg, 30 minutes after administration, read-out: ΔT3 (anti-ischemic effect: change in elevation of the T wave, occlusion 3 vs occlusion 2)) is -45%; in data set [4] (1 h, i.v. bolus, 3.2 × 10^-8 mole/kg, 60 minutes after administration, read-out: ΔT4 (anti-ischemic effect: change in elevation of the T wave, occlusion 4 vs occlusion 2)), -38%; in data set [4] (1 h, i.v. bolus, 3.2 × 10^-8 mole/kg, between 30 and 60 minutes after injection, read-out: ΔPb (maximum lowering of arterial pressure)) it was 0%.

Consider `COc1cc2nc(N3CCN(C(=O)c4ccco4)CC3)nc(N)c2cc1OC` [Prazosin, 1-(4-amino-6,7-dimethoxy-2-quinazolinyl)-4-(2-furanylcarbonyl)piperazine, reference compound], for which, in data set [2], the IC30 is 0.23 nM. In data set [4] (i.v., Table I), the “anti-ischemic effect, in words” value is “absence of a significant anti-ischemic effect”.

As to `CC(C)NCC(O)COc1cccc2ccccc12` (stereo not shown) [Propranolol, 1-[(1-methylethyl)amino]-3-(1-naphthalenyloxy)-2-propanol, reference compound], the change in vivo at 3 µmol/kg in data set [4] (0.5 h, i.v. bolus, 3.2 × 10^-6 mole/kg, 30 minutes after administration, read-out: ΔT3 (anti-ischemic effect: change in elevation of the T wave, occlusion 3 vs occlusion 2)) is -21%; in data set [4] (0.5 h, i.v. bolus, 3.2 × 10^-6 mole/kg, between 5 and 30 minutes after injection, read-out: ΔPa (maximum lowering of arterial pressure)), 7%; in data set [4] (1 h, i.v. bolus, 3.2 × 10^-6 mole/kg, 60 minutes after administration, read-out: ΔT4 (anti-ischemic effect: change in elevation of the T wave, occlusion 4 vs occlusion 2)), -30%; in data set [4] (1 h, i.v. bolus, 3.2 × 10^-6 mole/kg, between 30 and 60 minutes after injection, read-out: ΔPb (maximum lowering of arterial pressure)), 5%.
